{"source": "patent EP4361137A1", "about": "“PRUNE1 INHIBITORS AND THERAPEUTIC USE THEREOF” (CEINGE Biotecnologie Avanzate Franco Salvatore s.c. a r.l., priority 2022, dated 2024)", "key": {"D425-MED-Luc": {"tested_on": "D425-MED-Luc", "test": "Orthotopic xenograft of D425-MED-Luc cells in nude mice", "type": "in vivo", "settings": "6 mg/kg/day intraperitoneally; for toxicity by total body weight, treated vs control mice / intracranial tumor growth (bioluminescence, photon emission) / PRUNE1 levels in cerebellar tumours (immunoblotting): HCl salt; for intracranial tumor growth (bioluminescence, photon emission): T21, after 14 days of treatment; for PRUNE1 levels in cerebellar tumours (immunoblotting): n.3 treated vs n.3 vehicle mice", "method": "Starting after seven days from tumour implantation (i.e., once the tumours were established) the mice (grouped according to their bioluminescence values) were injected intraperitoneally with LEO-AA7.5(S)T at 6 mg/kg/day, or with water as the vehicle for the control group. After n.28 days from tumour implantation (i.e., after three weeks of AA7.5 treatment), the mice were sacrificed, and the organs were collected.\nD425-MED-luc [Ferrucci et al., 2018] were implanted into the right cerebellar hemisphere of female (n.14) athymic nude mice (5 weeks old), as previously described [Asadzadeh et al., 2018], to establish orthotopic intracerebellar D425-MED-Luc xenograft models. Nude mice were anaesthetised with Ketamine/ Xylazine (87.5 mg/kg, 12.5 mg/kg, respectively). The mice were then placed in a stereotactic frame by hooking their incisors onto the frame hold. A small skin incision (length, 1 mm) and a burr hole (diameter, 0.7 mm) were created using a microsurgical drill (Fine Science Tools, Foster City, CA, USA). D425-MED-Luc cells (1 ×10^5)were resuspended in 10 µL PBS and injected slowly through the burr hole into the right cerebellar hemisphere (stereotactic coordinates from Bregma: anteroposterior, 5.5 mm; right lateral, 2.1 mm; dorsoventral 5.0 mm), with a steady force over 30 s, using a 10-AL, 26-gauge Hamilton Gastight model 1701RN syringe needle (SigmaAldrich) that was inserted perpendicular to the cranial surface. The incision was sutured using Safil polyglycolic acid synthetic absorbable suture (6/0). The mice were kept on a warming blanket after the surgery, to help them to maintain their body temperature. Their mobility and respiratory patterns were observed continuously, and once the mice had recovered from the anaesthesia; they were place in a sterile housing cage. The mice were monitored daily for development of potential neurological deficits. Seven days after the implantation of the cells, the mice were imaged, and tumour growth was evaluated by bioluminescence acquisition using an imaging system (IVIS 3D Illumina; Xenogen/ Caliper). For the acquisitions, the mice were anaesthetised by inhalational of isoflurane, and the D-luciferin (122799; PerkinElmer) (15 mg/mL stock) was injected intraperitoneally (100 µL per 10 g body weight). At 5 min from the luciferin injection, the mice were imaged for 3 min. To quantify the bioluminescence, the integrated fluxes of photons (p/s) within each area of interest were determined using the Living Images Software Package 3.2 (Xenogen-Perkin Elmer). For LEO-AA7.5(S)T in-vivo treatment, starting after seven days from tumour implantation (i.e., once the tumours were established) the mice (grouped according to their bioluminescence values) were injected intraperitoneally with LEO-AA7.5(S)T at 6 mg/kg/day, or with water as the vehicle for the control group. After 28 days from tumour implantation (i.e., after three weeks of AA7.5 treatment), the mice were sacrificed, and the organs were collected."}, "Prune1": {"molecular_target": "T1, Prune1 (Homo sapiens, UniProt Q86TP1)", "T1 construct": "endogenous in cells; host or cells: D425-MED cells", "T1 sequence (Q86TP1 1-453)": "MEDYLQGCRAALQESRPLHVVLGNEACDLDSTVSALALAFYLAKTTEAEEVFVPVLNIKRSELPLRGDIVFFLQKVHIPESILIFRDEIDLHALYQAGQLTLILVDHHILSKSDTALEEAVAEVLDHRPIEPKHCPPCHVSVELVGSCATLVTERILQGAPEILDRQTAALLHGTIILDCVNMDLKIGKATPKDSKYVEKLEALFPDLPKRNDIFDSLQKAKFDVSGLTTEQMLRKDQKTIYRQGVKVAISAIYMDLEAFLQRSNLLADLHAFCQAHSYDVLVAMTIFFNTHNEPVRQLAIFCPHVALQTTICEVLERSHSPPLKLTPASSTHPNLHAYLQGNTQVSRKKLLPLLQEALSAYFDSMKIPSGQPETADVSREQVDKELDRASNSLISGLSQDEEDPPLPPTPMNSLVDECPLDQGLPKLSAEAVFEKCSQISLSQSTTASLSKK", "test": "Immunoblotting and densitometry of Prune1 in D425-MED cells", "type": "cell-based", "method": "D425.MED and MMTV-Prune1/Wnt1 cells were plated and treated with increasing concentrations of LEO-AA7.5(S)T for 24 hours. Water-treated cells were used as negative control for the experiments.\nCells for immunoblotting analysis were washed in cold PBS and lysed in cell lysis buffer [20 mM sodium phosphate (pH 7.4), 150 mM NaCl, 10% (v/v) glycerol, 1% (w/v) sodium deoxycholate, 1% (v/v) Triton X-100] supplemented with protease inhibitors (Roche). The resulting cell lysates were cleared by centrifugation at 16,200g for 10 min at room temperature, and the supernatants were re- moved and assayed for protein concentrations with the Protein Assay Dye Reagent (Bio-Rad). The cell lysates (30 µg) were resolved by SDS-polyacrylamide gel electrophoresis (SDS-PAGE) gels of different percentages, which depended on the molecular weights of the proteins of interest. The proteins were then electrophoretically transferred to polyvinylidene difluoride (PVDF) membranes (Millipore). After 1 hour in blocking solution with 5% (w/v) dry milk fat in PBS or 5% (w/v) BSA (Sigma-Aldrich) in tris-buffered saline [both of which contained 0.02% (v/v) Tween 20] […] The peak areas of the bands were measured on the densitometry plots, and the relative proportions (percentages) were calculated. […]"}, "[1]": {"settings": "listed as (S)-(1-(4-((4-methoxybenzyl)amino)-1,3,5-triazin-2-yl)piperidin-3-yl)methanol HC"}}}
{"smiles": "COc1ccc(CNc2ncnc(N3CCC[C@H](CO)C3)n2)cc1.Cl", "note": "[LEO-AA7.5(S)T, (S)-(1-(4-((4-methoxybenzyl)amino)-1,3,5-triazin-2-yl)piperidin-3-yl)methanol HCl salt]", "values": [{"measurement": "EMT in cerebellar tumours (N-cadherin loss, increased E-cadherin)", "setting": "D425-MED-Luc", "value": "inhibition of EMT"}, {"measurement": "activated PTEN in cerebellar tumours (immunoblotting)", "setting": "D425-MED-Luc", "value": "overexpression"}, {"measurement": "nuclear phosphorylated SMAD2/3 and OTX2 in cerebellar tumours (immunoblotting)", "setting": "D425-MED-Luc", "value": "inhibition"}, {"measurement": "toxicity by total body weight, treated vs control mice", "setting": "D425-MED-Luc", "value": "No significant differences"}, {"measurement": "intracranial tumor growth (bioluminescence, photon emission)", "setting": "D425-MED-Luc", "value": "impairment of tumour growth"}, {"measurement": "intracranial tumor growth (bioluminescence, photon emission)", "setting": "D425-MED-Luc; [1]", "value": "significantly decreased"}, {"measurement": "treated mice showing metastases in the spinal cord", "setting": "D425-MED-Luc; control mice 7 out of 7", "value": "two out of seven"}, {"measurement": "toxicity by total body weight, treated vs control mice", "setting": "D425-MED-Luc; [1]", "value": "no decrease in total body weight"}, {"measurement": "PRUNE1 levels in cerebellar tumours (immunoblotting)", "setting": "D425-MED-Luc", "value": "downregulation of Prune1"}, {"measurement": "PRUNE1 levels in cerebellar tumours (immunoblotting)", "setting": "D425-MED-Luc; [1]", "value": "reduced PRUNE1 levels"}, {"measurement": "dose effective on Prune1 target inhibition/degradation in vitro, lower than AA7.1", "setting": "Prune1; 10 µM vs 100 µM AA7.1", "value": 10, "unit": "fold"}, {"measurement": "Prune1 protein levels", "setting": "Prune1; D425-Med cells, 10 µM, 24 hours, densitometry relative to vehicle", "value": 0.6, "unit": "fold"}]}
